Data reported in the supplement of paper PMC11061612.

Tests used:
[1] = system: DG-75 (Burkitt's Lymphoma); test: combination Emax (second highest fraction inhibited in the dose matrix, 72 h); higher = more inhibition; extreme values may be limits of the assay
How it was run: (§1)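 Cell lines in DMEM/F12 or RPMI with 10% FBS were plated in 1536-well plates, held 24 hours at 37°C, 5% CO2, then given two-drug dose matrices for 72 hours (DMSO typically 0.2%). Viability was read by CellTiter-Glo 2.0 luminescence and scaled as inhibition from 0 (vehicle wells) to 1 (blank wells). Combination Emax is the second-highest inhibition in the matrix; Bliss excess is observed combination effect minus expected EA + EB − EA·EB, EA and EB being single-agent effects.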

[2] = system: BV-173 (Chronic Myelogenous Leukemia); test: as above
How it was run: as §1

[3] = system: LC4-1 (B-Lymphoblastic Leukemia); test: as above
How it was run: as §1

[4] = system: EW-13 (Ewing's Sarcoma); test: as above
How it was run: as §1

[5] = system: HSC-2 (Oral Cavity Carcinoma); test: as above
How it was run: as §1

[6] = system: IMR-5 (Neuroblastoma); test: as above
How it was run: as §1

[7] = system: OCUM-1 (Gastric Carcinoma); test: as above
How it was run: as §1

[8] = system: SNU-C1 (Colorectal Carcinoma); test: Bliss excess, mean over the matrix (fraction); higher = more synergy
How it was run: as §1

[9] = system: GOTO (Neuroblastoma); test: as above
How it was run: as §1

[10] = system: HC-1 (Other Blood Carcinomas); test: as above
How it was run: as §1

[11] = system: H-EMC-SS (Chondrosarcoma); test: as above
How it was run: as §1

[12] = system: EW-18 (Ewing's Sarcoma); test: as above
How it was run: as §1

[13] = system: NCI-N87 (Gastric Carcinoma); test: as above
How it was run: as §1

[14] = system: MFE-319 (Endometrial Carcinoma); test: as above
How it was run: as §1

[15] = system: KP-2 (Pancreatic Carcinoma); test: as above
How it was run: as §1

[16] = system: EW-3 (Ewing's Sarcoma); test: as above
How it was run: as §1

[17] = system: KYSE-50 (Esophageal Squamous Cell Carcinoma); test: as above
How it was run: as §1

[18] = system: SCC-3 (B-Cell Non-Hodgkin's Lymphoma); test: as above
How it was run: as §1

[19] = system: NCI-H322M (Lung Adenocarcinoma); test: as above
How it was run: as §1
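For Bliss excess, mean over the matrix in this document: after 72 h of two-drug dosing.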

SMILES | combination Emax [1] | combination Emax [2] | combination Emax [3] | combination Emax [4] | combination Emax [5] | combination Emax [6] | combination Emax [7] | Bliss excess [8] | Bliss excess [9] | Bliss excess [10] | Bliss excess [11] | Bliss excess [12] | Bliss excess [13] | Bliss excess [14] | Bliss excess [15] | Bliss excess [16] | Bliss excess [17] | Bliss excess [18] | Bliss excess [19]
C=CCn1c(=O)c2cnc(Nc3ccc(N4CCN(C)CC4)cc3)nc2n1-c1cccc(C(C)(C)O)n1 [AZD1775] + O=C(c1cc(Cc2n[nH]c(=O)c3ccccc23)ccc1F)N1CCN(C(=O)C2CC2)CC1 [Olaparib] (first compound max 1 µM, partner max 10 µM) | 0.694 | 0.96 | 0.92 | 0.622 | 0.63 | 0.83 | 0.473 | -0.0721 | -0.0271 | -0.0393 | -0.0807 | -0.0742 | -0.046 | -0.0235 | -0.0145 | -0.0619 | -0.0206 | -0.0259 | -0.0222
CN(C)CCCOc1ccc(-c2ccc3ncc4c(c3c2)n(C2CCOCC2)c(=O)n4C)cn1 [AZD0156] + C=CCn1c(=O)c2cnc(Nc3ccc(N4CCN(C)CC4)cc3)nc2n1-c1cccc(C(C)(C)O)n1 [AZD1775] (first compound max 1 µM, partner max 1 µM) | 0.759 | 0.995 | 0.916 | 0.444 | 0.54 | 0.741 | 0.548 | -0.0401 | 0.0051 | -0.0238 | -0.0535 | -0.0245 | -0.0181 | -0.0706 | -0.0331 | 0.002 | -0.0116 | -0.0162 | -0.0027
C[C@@H]1COCCN1c1cc(C2([S@](C)(=N)=O)CC2)nc(-c2ccnc3[nH]ccc23)n1 [AZD6738] + O=C(c1cc(Cc2n[nH]c(=O)c3ccccc23)ccc1F)N1CCN(C(=O)C2CC2)CC1 [Olaparib] (first compound max 10 µM, 7x7, partner max 10 µM) | 0.835 | 0.988 | 0.952 | 0.757 | 0.721 | 0.958 | 0.675 | -0.0345 | -0.0645 | -0.0238 | -0.0558 | 0.0292 | 0.0043 | -0.0089 | 0.0024 | -0.0558 | -0.0202 | 0.0103 | -0.0491
COc1cc2c(cc1OCCCCCOc1cc3c(cc1OC)C(=O)N1C=C(C)C[C@H]1C=N3)N=C[C@@H]1CC(C)=CN1C2=O [SG3199] + O=C(c1cc(Cc2n[nH]c(=O)c3ccccc23)ccc1F)N1CCN(C(=O)C2CC2)CC1 [Olaparib] (first compound max 0.001 µM, 7x7, partner max 10 µM) | 0.201 | 0.932 | 0.528 | 0.584 | 0.116 | 0.543 | 0.122 | -0.0446 | 0.0943 | -0.0164 | -0.0812 | -0.0629 | -0.0477 | -0.041 | -0.0193 | -0.0613 | -0.0319 | 0.0586 | -0.0014
Cc1cc2ncnn2cc1Nc1ncc2c(n1)n(C1CCOCC1)c(=O)n2C [AZD7648] + O=C(c1cc(Cc2n[nH]c(=O)c3ccccc23)ccc1F)N1CCN(C(=O)C2CC2)CC1 [Olaparib] (first compound max 10 µM, 7x7, partner max 10 µM) | 0.481 | 0.897 | 0.442 | 0.564 | 0.228 | 0.475 | 0.186 | -0.0619 | 0.0388 | -0.0389 | -0.0759 | -0.0427 | -0.0262 | -0.0499 | -0.0017 | -0.0743 | -0.0246 | -0.0757 | -0.0342
CS(=O)(=O)CCNCc1ccc(-c2ccc3ncnc(Nc4ccc(OCc5cccc(F)c5)c(Cl)c4)c3c2)o1 [Lapatinib] + NC1(c2ccc(-c3nc4ccn5c(=O)[nH]nc5c4cc3-c3ccccc3)cc2)CCC1 [MK-2206] (first compound max 10 µM, 7x7, partner max 10 µM) |  |  | 0.954 |  | 0.987 |  | 0.843 | -0.0184 |  |  | -0.0597 |  | 0.0091 | -0.0155 |  | 0.0455 |  |  | 
COc1cccc(OCCCN)c1-c1cc(Nc2cnc(C#N)cn2)n[nH]1 [Prexasertib] + Cc1cc2ncnn2cc1Nc1ncc2c(n1)n(C1CCOCC1)c(=O)n2C [AZD7648] (first compound max 1 µM, 7x7, partner max 10 µM) | 0.923 | 0.964 | 0.97 | 0.512 | 0.778 | 0.98 | 0.803 | -0.0873 | -0.0243 | 0.0069 | -0.021 | -0.0679 | -0.0119 | -0.0064 | 0.0258 | 0.0201 | -0.0296 | -0.0082 | -0.0083
CCN(CCO)CCCOc1ccc2c(Nc3cc(CC(=O)Nc4cccc(F)c4)[nH]n3)ncnc2c1 [AZD2811] + C=CCn1c(=O)c2cnc(Nc3ccc(N4CCN(C)CC4)cc3)nc2n1-c1cccc(C(C)(C)O)n1 [AZD1775] (first compound max 1 µM, partner max 1 µM) | 0.776 | 0.987 | 0.896 | 0.355 | 0.43 | 0.998 | 0.482 | -0.0321 | -0.0162 | 0.0697 | -0.0261 | -0.134 | -0.0657 | -0.0361 | -0.001 | 0.0844 | 0.0006 | -0.011 | -0.0188
COc1cccc(OCCCN)c1-c1cc(Nc2cnc(C#N)cn2)n[nH]1 [Prexasertib] + C[C@@H]1COCCN1C2=NC(=NC(=C2)C3(CC3)[S@](=N)(=O)C)C4=C5C=CNC5=NC=C4 [AZD6738] (first compound max 1 µM, 7x7, partner max 10 µM) | 0.942 | 0.964 | 0.984 | 0.632 | 0.741 | 1 | 0.813 | -0.0078 | -0.0866 | -0.0139 | -0.0013 | -0.0548 | -0.0253 | -0.0238 | -0.0324 | -0.0275 | 0.0034 | -0.0201 | -0.0367
CCN(CCO)CCCOc1ccc2c(Nc3cc(CC(=O)Nc4cccc(F)c4)[nH]n3)ncnc2c1 [AZD2811] + O=C(c1cc(Cc2n[nH]c(=O)c3ccccc23)ccc1F)N1CCN(C(=O)C2CC2)CC1 [Olaparib] (first compound max 1 µM, 7x7, partner max 10 µM) | 0.307 | 0.982 | 0.854 | 0.701 | 0.439 | 0.962 | 0.379 | -0.0016 | 0.0341 | 0.0928 | -0.0353 | -0.0534 | 0.0237 | 0.0376 | -0.0123 | -0.103 | 0.0397 | 0.0494 | -0.0063
COc1cccc(OCCCN)c1-c1cc(Nc2cnc(C#N)cn2)n[nH]1 [Prexasertib] + C=CCn1c(=O)c2cnc(Nc3ccc(N4CCN(C)CC4)cc3)nc2n1-c1cccc(C(C)(C)O)n1 [AZD1775] (first compound max 1 µM, partner max 1 µM) | 0.995 | 0.994 | 0.983 | 0.611 | 0.882 | 1 | 0.808 | 0.0175 | 0.0074 | 0.0149 | 0.0712 | -0.0615 | -0.0324 | -0.0049 | 0.112 | 0.0286 | 0.0242 | 0.051 | 0.0366
CN(C)CCCOc1ccc(-c2ccc3ncc4c(c3c2)n(C2CCOCC2)c(=O)n4C)cn1 [AZD0156] + C[C@@H]1COCCN1C2=NC(=NC(=C2)C3(CC3)[S@](=N)(=O)C)C4=C5C=CNC5=NC=C4 [AZD6738] (first compound max 1 µM, 7x7, partner max 10 µM) | 0.939 | 0.975 | 0.908 | 0.581 | 0.696 | 0.926 | 0.783 | 0.0001 | -0.0394 | -0.0214 | -0.0707 | 0.0047 | -0.0286 | -0.0027 | 0.0173 | -0.0721 | 0.0101 | 0.0521 | -0.0076
CCN(CCO)CCCOc1ccc2c(Nc3cc(CC(=O)Nc4cccc(F)c4)[nH]n3)ncnc2c1 [AZD2811] + C[C@@H]1COCCN1C2=NC(=NC(=C2)C3(CC3)[S@](=N)(=O)C)C4=C5C=CNC5=NC=C4 [AZD6738] (first compound max 1 µM, 7x7, partner max 10 µM) | 0.841 | 0.994 | 0.97 | 0.638 | 0.68 | 1 | 0.708 | -0.122 | 0.027 | -0.007 | -0.0723 | -0.0831 | -0.0855 | -0.0472 | -0.0084 | -0.0152 | -0.051 | 0.0411 | -0.0484
Cc1cc2ncnn2cc1Nc1ncc2c(n1)n(C1CCOCC1)c(=O)n2C [AZD7648] + C=CCn1c(=O)c2cnc(Nc3ccc(N4CCN(C)CC4)cc3)nc2n1-c1cccc(C(C)(C)O)n1 [AZD1775] (first compound max 10 µM, partner max 1 µM) | 0.833 | 0.964 | 0.898 | 0.332 | 0.596 | 0.781 | 0.384 | -0.0209 | -0.0421 | -0.106 | -0.028 | -0.0322 | -0.0342 | -0.0055 | -0.014 | -0.0894 | 0.0011 | -0.0277 | -0.0215
